Results reported in ChEMBL document CHEMBL6096727, “Structure-Based Rational Design and Evaluation of BET-Aurora Kinase Dual-Inhibitors for Treatment of Cancers” (J Med Chem, 2025).

target: T1, Bromodomain-containing protein 2 (Homo sapiens, UniProt P25440); assay: Inhibition of BRD2 BD1 (unknown origin) incubated for 2 to 4 hrs under dark condition by FP assay; details: not given
T1 sequence (P25440 whole entry): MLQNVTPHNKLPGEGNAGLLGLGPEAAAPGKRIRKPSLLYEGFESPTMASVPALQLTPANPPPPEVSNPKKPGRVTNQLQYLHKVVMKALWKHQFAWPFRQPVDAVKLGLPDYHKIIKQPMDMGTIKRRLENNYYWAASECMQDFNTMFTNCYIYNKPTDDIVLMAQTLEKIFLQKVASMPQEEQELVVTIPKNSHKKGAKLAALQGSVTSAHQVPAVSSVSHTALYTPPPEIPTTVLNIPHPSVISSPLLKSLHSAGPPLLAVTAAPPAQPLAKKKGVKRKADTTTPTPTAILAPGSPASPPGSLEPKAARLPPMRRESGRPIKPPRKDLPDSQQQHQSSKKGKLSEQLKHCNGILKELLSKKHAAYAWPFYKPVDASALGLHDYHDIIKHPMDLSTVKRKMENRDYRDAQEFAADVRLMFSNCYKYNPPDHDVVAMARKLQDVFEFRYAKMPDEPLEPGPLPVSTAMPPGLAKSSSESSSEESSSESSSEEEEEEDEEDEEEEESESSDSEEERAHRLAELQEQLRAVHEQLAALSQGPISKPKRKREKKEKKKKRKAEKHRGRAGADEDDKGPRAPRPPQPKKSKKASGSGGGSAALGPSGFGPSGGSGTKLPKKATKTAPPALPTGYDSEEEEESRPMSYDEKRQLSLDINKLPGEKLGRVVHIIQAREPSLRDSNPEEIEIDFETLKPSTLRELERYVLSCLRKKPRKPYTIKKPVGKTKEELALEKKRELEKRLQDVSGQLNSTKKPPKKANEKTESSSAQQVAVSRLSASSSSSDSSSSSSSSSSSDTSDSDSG

For `Cc1c(-c2nc(Nc3ccc4c(c3)N(C(C)C)[C@H](C)C(=O)N4C)ncc2F)c(C2CC2)nn1C`, the IC50 was 0.035 µM.

target: Cyclin-dependent kinase 9 (Homo sapiens) (UniProt P50750); details: dose 100.0 nM
Sequence (P50750 whole entry): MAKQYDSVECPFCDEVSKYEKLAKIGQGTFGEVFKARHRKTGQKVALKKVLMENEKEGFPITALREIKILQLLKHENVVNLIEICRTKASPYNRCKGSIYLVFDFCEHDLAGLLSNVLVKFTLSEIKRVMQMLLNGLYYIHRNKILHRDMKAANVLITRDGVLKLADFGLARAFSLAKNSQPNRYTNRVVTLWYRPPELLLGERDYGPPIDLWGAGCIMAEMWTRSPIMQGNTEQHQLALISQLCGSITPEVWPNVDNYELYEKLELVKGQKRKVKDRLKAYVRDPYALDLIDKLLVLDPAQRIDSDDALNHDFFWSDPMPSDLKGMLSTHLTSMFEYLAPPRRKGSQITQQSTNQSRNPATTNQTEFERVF
Description: Inhibition of CDK9 (unknown origin) using caliper substrate CTD3 at 100 nM by mobility shift assay relative to control

Point of comparison: `CC(C)N1c2cc(Nc3nccc(-c4c[nH]nc4-c4ccccc4)n3)ccc2N(C)C(=O)[C@H]1C`, inhibition 23%. Against it:
- Cc1c(-c2nc(Nc3ccc4c(c3)N(C(C)C)[C@H](C)C(=O)N4C)ncc2Cl)c(C2CC2)nn1C — the same, 23%
- Cc1c(-c2ccnc(Nc3ccc4c(c3)N(C(C)C)[C@H](C)C(=O)N4C)n2)c(C2CC2)nn1C — lower, 6.5%
- Cc1nn(C(C)C)cc1-c1ccnc(Nc2ccc3c(c2)N(C(C)C)[C@H](C)C(=O)N3C)n1 — lower, 2.5%
- CC(C)N1c2cc(Nc3nccc(Nc4cc(C(C)(C)C)n[nH]4)n3)ccc2N(C)C(=O)[C@H]1C — higher, 45%
- CC(C)N1c2cc(Nc3nccc(Nc4cc(C(C)(C)C)nn4C)n3)ccc2N(C)C(=O)[C@H]1C — lower, 0%
- Cc1cnc(Nc2ccc3c(c2)N(C(C)C)[C@H](C)C(=O)N3C)nc1-c1c(C2CC2)nn(C)c1C — lower, 0%
- Cc1c(-c2ccnc(Nc3ccc4c(n3)N(C(C)C)[C@H](C)C(=O)N4C)n2)c(C2CC2)nn1C — lower, 0.8%
- Cc1n[nH]c(C2CCC2)c1-c1ccnc(Nc2ccc3c(c2)N(C(C)C)[C@H](C)C(=O)N3C)n1 — lower, 5.9%
- CC(C)N1c2cc(Nc3nccc(-c4cc[nH]n4)n3)ccc2N(C)C(=O)[C@H]1C — lower, 5.4%
- CC(C)N1c2cc(Nc3nccc(Nc4cc(-c5ccccc5)nn4C)n3)ccc2N(C)C(=O)[C@H]1C — lower, -1.5%
- Cc1c(-c2ccnc(Nc3ccc4c(c3)N(C3CCCC3)[C@H](C)C(=O)N4C)n2)c(C2CC2)nn1C — lower, 4.6%
- Cc1c(-c2ccnc(Nc3ccc4c(c3)N(C(C)C)[C@H](C)C(=O)N4C)n2)cnn1C — higher, 25%
- Cc1c(-c2nc(Nc3ccc4c(c3)N(C(C)C)[C@H](C)C(=O)N4C)ncc2F)c(C2CC2)nn1C — lower, 15%
- Cc1nn(C)c(C2CC2)c1-c1ccnc(Nc2ccc3c(c2)N(C(C)C)[C@H](C)C(=O)N3C)n1 — lower, 3.4%
- Cc1cc(Nc2ccnc(Nc3ccc4c(c3)N(C(C)C)[C@H](C)C(=O)N4C)n2)n(C(C)(C)C)n1 — lower, -1.5%
- CC[C@@H]1C(=O)N(C)c2ccc(Nc3ncc(F)c(-c4c(C5CC5)nn(C)c4C)n3)cc2N1C(C)C — lower, 19%
- CCc1n[nH]c(C2CC2)c1-c1ccnc(Nc2ccc3c(c2)N(C(C)C)[C@H](C)C(=O)N3C)n1 — lower, 5.9%
- Cc1n[nH]c(C)c1-c1ccnc(Nc2ccc3c(c2)N(C(C)C)[C@H](C)C(=O)N3C)n1 — lower, 5.8%
- Cc1cc(Nc2ccnc(Nc3ccc4c(c3)N(C(C)C)[C@H](C)C(=O)N4C)n2)n(-c2ccccc2)n1 — lower, 5.3%
- CC[C@@H]1C(=O)N(C)c2ccc(Nc3ncc(F)c(-c4c(C5CCC5)nn(C)c4C)n3)cc2N1C(C)C — lower, 10%
- CC(C)N1c2cc(Nc3nccc(-c4c[nH]nc4C4CCCCC4)n3)ccc2N(C)C(=O)[C@H]1C — higher, 56%
- Cc1n[nH]cc1-c1ccnc(Nc2ccc3c(c2)N(C(C)C)[C@H](C)C(=O)N3C)n1 — higher, 53%
- CCn1nccc1-c1ccnc(Nc2ccc3c(c2)N(C(C)C)[C@H](C)C(=O)N3C)n1 — lower, 4.7%
- Cc1n[nH]c(C2CC2)c1-c1ccnc(Nc2ccc3c(c2)N(C(C)C)[C@H](C)C(=O)N3C)n1 — lower, 12%
- Cc1c(-c2nc(Nc3ccc4c(c3)N(C(C)C)[C@H](C)C(=O)N4C)ncc2F)c(C2CCC2)nn1C — lower, 18%
- Cc1nn(-c2ccccc2)cc1-c1ccnc(Nc2ccc3c(c2)N(C(C)C)[C@H](C)C(=O)N3C)n1 — lower, 0.9%
- CC(C)N1c2cc(Nc3nccc(-c4ccn(C)n4)n3)ccc2N(C)C(=O)[C@H]1C — lower, -1.4%
- CC(C)N1c2cc(Nc3nccc(-c4cn[nH]c4)n3)ccc2N(C)C(=O)[C@H]1C — higher, 73%
- Cc1cc(Nc2ccnc(Nc3ccc4c(c3)N(C(C)C)[C@H](C)C(=O)N4C)n2)n(C(C)C)n1 — lower, 0.5%
- Cc1c(-c2nc(Nc3ccc4c(c3)N(C(C)C)[C@H](C)C(=O)N4C)ncc2F)c(C2CCCC2)nn1C — lower, 8.2%
- CC(C)N1c2cc(Nc3nccc(-c4ccnn4C)n3)ccc2N(C)C(=O)[C@H]1C — lower, -1.3%
- Cc1nn(C)cc1-c1ccnc(Nc2ccc3c(c2)N(C(C)C)[C@H](C)C(=O)N3C)n1 — lower, 3.2%
- Cc1cc(Nc2ccnc(Nc3ccc4c(c3)N(C(C)C)[C@H](C)C(=O)N4C)n2)n(C)n1 — lower, -0.3%
- Cc1c(-c2ccnc(Nc3cc(F)c4c(c3)N(C(C)C)[C@H](C)C(=O)N4C)n2)c(C2CC2)nn1C — lower, -0.9%
- Cc1c(-c2ccnc(Nc3ccc4c(c3)N(C3CCC3)[C@H](C)C(=O)N4C)n2)c(C2CC2)nn1C — lower, 9.1%
- CC[C@@H]1C(=O)N(C)c2ccc(Nc3nccc(-c4c(C5CC5)nn(C)c4C)n3)cc2N1C(C)C — lower, 2.7%
- CC(C)c1n[nH]cc1-c1ccnc(Nc2ccc3c(c2)N(C(C)C)[C@H](C)C(=O)N3C)n1 — higher, 69%
- CC(C)N1c2cc(Nc3nccc(-c4c[nH]nc4C4CCCC4)n3)ccc2N(C)C(=O)[C@H]1C — higher, 62%
- CCn1cc(-c2ccnc(Nc3ccc4c(c3)N(C(C)C)[C@H](C)C(=O)N4C)n2)c(C)n1 — lower, 9.4%
- Cc1cc(-c2ccnc(Nc3ccc4c(c3)N(C(C)C)[C@H](C)C(=O)N4C)n2)n(C)n1 — lower, -0.4%
- CC(C)N1c2cc(Nc3nccc(Nc4cc(C5CC5)nn4C)n3)ccc2N(C)C(=O)[C@H]1C — lower, 3.8%
- CC[C@@H]1C(=O)N(C)c2ccc(Nc3ncc(F)c(-c4c(C5CCCC5)nn(C)c4C)n3)cc2N1C(C)C — lower, 10%
- CC(C)N1c2cc(Nc3nccc(-c4ccnn4C(C)C)n3)ccc2N(C)C(=O)[C@H]1C — lower, 14%

target: T1, Bromodomain-containing protein 2; assay: Inhibition of BRD2 BD2 (unknown origin) incubated for 2 to 4 hrs under dark condition by FP assay; details: not given

With `Cc1c(-c2nc(Nc3ccc4c(c3)N(C(C)C)[C@H](C)C(=O)N4C)ncc2F)c(C2CC2)nn1C` the IC50 was 0.048 µM.

tested on: HCT-116; assay: Antiproliferative activity against human HCT-116 cells incubated for 48 hrs by 3H-thymidine uptake assay; format: functional, cell-based; details: not given

`Cc1sc2c(c1C)C(c1ccc(Cl)cc1)=N[C@@H](CC(=O)OC(C)(C)C)c1nnc(C)n1-2` was tested, and the IC50 was 6.15 µM.

target: Bromodomain-containing protein 4 (Homo sapiens, UniProt O60885); assay: Inhibition of BRD4 BD1 (unknown origin); details: not given

For `CC(C)N1c2cc(Nc3nccc(-c4ccccc4)n3)ccc2N(C)C(=O)C1C` (stereo not drawn), the IC50 was 0.193 µM.
